The values that follow come from patent publication US12077503B2, “Substituted cyclic amides and their use as herbicides” (FMC CORPORATION, priority 2015, dated 2024).

What all share (assay type): in vivo
Assay [1] relates to barnyardgrass (Echinochloa crus-galli). Briefly: Test G Post-Emergence Protocol. The settings on record: Echinochloa crus-galli, post-emergence, 312 h; for pest or weed control at 15.625 g/ha: 15.625 g ai/ha, evaluated after 13 days (100=total damage to plant; 0=no damage to plant), read-out: Barnyardgrass damage rating; for pest or weed control at 62.5 g/ha: 62.5 g ai/ha, read-out: Barnyardgrass damage rating (100=total damage to plant; 0=no damage to plant); for pest or weed control at 62.5 g/ha / pest or weed control at 250 g/ha: evaluated after 13 days; for pest or weed control at 250 g/ha: 250 g ai/ha, read-out: damage to plant, Barnyardgrass (100=total damage to plant; 0=no damage to plant). Here is the method: (§1) Seeds of corn (Zea mays), giant foxtail (Setaria faberi), barnyardgrass (Echinochloa crus-galli), ivy-leaved morning glory (Ipomoea hederacea), redroot pigweed (Amaranthus retroflexus) and velvetleaf (Abutilon theophrasti) were sown in standard soil in pots. After cultivation for 8 days under controlled conditions in a glasshouse (at 24/16° C., day/night; 14 hours light; 65% humidity), the plants were sprayed with an aqueous spray solution derived from the formulation of the technical active ingredient in acetone/water (50:50) solution containing 0.5% Tween 20 (polyoxyethylene sorbitan monolaurate, CAS RN 9005-64-5) to give a final dose of 15.625, 62.5 or 250 g/ha of test compound.
(§2) The test plants were then grown on under controlled conditions in a glasshouse (at 24/16° C., day/night; 14 hours light; 65% humidity) and watered twice daily. After 13 days the test was evaluated (100=total damage to plant; 0=no damage to plant). A dash (-) means no test result.

Assay [2] has as its system corn (Zea mays). The experiment in a line: Test G Post-Emergence Protocol. Particulars: Zea mays, post-emergence, 312 h; for plant injury at 15.625 g/ha: 15.625 g ai/ha, evaluated after 13 days (100=total damage to plant; 0=no damage to plant), read-out: Corn damage rating; for plant injury at 62.5 g/ha: 62.5 g ai/ha, read-out: Corn damage rating (100=total damage to plant; 0=no damage to plant); for plant injury at 62.5 g/ha / plant injury at 250 g/ha: evaluated after 13 days; for plant injury at 250 g/ha: 250 g ai/ha, read-out: damage to plant, Corn (100=total damage to plant; 0=no damage to plant). Here is the method: as §1, §2

For assay [3], the system named is giant foxtail (Setaria faberi). The experiment in a line: Test G Post-Emergence Protocol. Particulars: Setaria faberi, post-emergence, 312 h; for pest or weed control at 15.625 g/ha: 15.625 g ai/ha, evaluated after 13 days (100=total damage to plant; 0=no damage to plant), read-out: Foxtail, Giant damage rating; for pest or weed control at 62.5 g/ha: 62.5 g ai/ha, read-out: Foxtail, Giant damage rating (100=total damage to plant; 0=no damage to plant); for pest or weed control at 62.5 g/ha / pest or weed control at 250 g/ha: evaluated after 13 days; for pest or weed control at 250 g/ha: 250 g ai/ha, read-out: damage to plant, Foxtail, Giant (100=total damage to plant; 0=no damage to plant). Here is the method: as §1, §2

For assay [4], the system named is velvetleaf (Abutilon theophrasti). Briefly: Test G Post-Emergence Protocol. The settings on record: Abutilon theophrasti, post-emergence, 312 h; for pest or weed control at 15.625 g/ha: 15.625 g ai/ha, evaluated after 13 days (100=total damage to plant; 0=no damage to plant), read-out: Velvetleaf damage rating; for pest or weed control at 62.5 g/ha: 62.5 g ai/ha, read-out: Velvetleaf damage rating (100=total damage to plant; 0=no damage to plant); for pest or weed control at 62.5 g/ha / pest or weed control at 250 g/ha: evaluated after 13 days; for pest or weed control at 250 g/ha: 250 g ai/ha, read-out: damage to plant, Velvetleaf (100=total damage to plant; 0=no damage to plant). Here is the method: as §1, §2

For assay [5], the system named is ivy-leaved morning glory (Ipomoea hederacea). The experiment in a line: Test G Post-Emergence Protocol. The settings on record: Ipomoea, post-emergence, 312 h; for pest or weed control at 15.625 g/ha: 15.625 g ai/ha, evaluated after 13 days (100=total damage to plant; 0=no damage to plant), read-out: Morningglory, Ivy-leaved damage rating; for pest or weed control at 62.5 g/ha: 62.5 g ai/ha, read-out: Morningglory, Ivy-leaved damage rating (100=total damage to plant; 0=no damage to plant); for pest or weed control at 62.5 g/ha / pest or weed control at 250 g/ha: evaluated after 13 days; for pest or weed control at 250 g/ha: 250 g ai/ha, read-out: damage to plant, Morningglory, Ivy-leaved (100=total damage to plant; 0=no damage to plant). Here is the method:
as §1, §2

In assay [6] the test system is redroot pigweed (Amaranthus retroflexus). The experiment in a line: Test G Post-Emergence Protocol. Particulars: Amaranthus retroflexus, post-emergence, 312 h; for pest or weed control at 15.625 g/ha: 15.625 g ai/ha, evaluated after 13 days (100=total damage to plant; 0=no damage to plant), read-out: Pigweed, Redroot damage rating; for pest or weed control at 62.5 g/ha: 62.5 g ai/ha, read-out: Pigweed, Redroot damage rating (100=total damage to plant; 0=no damage to plant); for pest or weed control at 62.5 g/ha / pest or weed control at 250 g/ha: evaluated after 13 days; for pest or weed control at 250 g/ha: 250 g ai/ha, read-out: damage to plant, Pigweed, Redroot (100=total damage to plant; 0=no damage to plant). Here is the method:
as §1, §2

In assay [7] the test system is corn (Zea mays). Briefly: Test G Pre-Emergence Protocol. The settings on record: Zea mays, pre-emergence, 312 h, evaluated after 13 days; for plant injury at 15.625 g/ha: 15.625 g ai/ha; for plant injury at 15.625 g/ha / plant injury at 250 g/ha: read-out: Corn damage rating (100=total damage to plant; 0=no damage to plant); for plant injury at 62.5 g/ha: 62.5 g ai/ha, 100=total damage to plant, 0=no damage to plant, read-out: plant damage rating, Corn; for plant injury at 250 g/ha: 250 g ai/ha. Here is the method:
as §1, with “one day” for “8 days”
as §2

For assay [8], the system named is ivy-leaved morning glory (Ipomoea hederacea). Briefly: Test G Pre-Emergence Protocol. The settings on record: Ipomoea, pre-emergence, 312 h, evaluated after 13 days; for pest or weed control at 15.625 g/ha: 15.625 g ai/ha, read-out: Morning-glory, Ivy-leaved damage rating (100=total damage to plant; 0=no damage to plant); for pest or weed control at 62.5 g/ha: 62.5 g ai/ha, 100=total damage to plant, 0=no damage to plant, read-out: plant damage rating, Morningglory, Ivy-leaved; for pest or weed control at 250 g/ha: 250 g ai/ha, read-out: Morningglory, Ivy-leaved damage rating (100=total damage to plant; 0=no damage to plant). Here is the method:
as §1, with “one day” for “8 days”
as §2

Assay [9] deals with redroot pigweed (Amaranthus retroflexus). The experiment in a line: Test G Pre-Emergence Protocol. The settings on record: Amaranthus retroflexus, pre-emergence, 312 h, evaluated after 13 days; for pest or weed control at 15.625 g/ha: 15.625 g ai/ha; for pest or weed control at 15.625 g/ha / pest or weed control at 250 g/ha: read-out: Pigweed, Redroot damage rating (100=total damage to plant; 0=no damage to plant); for pest or weed control at 62.5 g/ha: 62.5 g ai/ha, 100=total damage to plant, 0=no damage to plant, read-out: plant damage rating, Pigweed, Redroot; for pest or weed control at 250 g/ha: 250 g ai/ha. Here is the method:
as §1, with “one day” for “8 days”
as §2

In assay [10] the test system is pigweed, palmer (palmer pigweed, Amaranthus palmeri). The experiment in a line: Test E preemergence. The settings on record: scale 0 to 100. In outline:
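Visual ratings from 0 (no effect) to 100 (complete control) were made versus controls 14 to 21 d after treatment. Seeds in silt loam were treated preemergence, or plants 2 to 18 cm tall in peat-based medium postemergence, with the test chemical in a surfactant-containing, non-phytotoxic solvent mixture, then held in a greenhouse.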

Turning to `Cc1ccc([C@H]2CN(C)C(=O)[C@@H]2C(=O)Nc2cccnc2F)cc1` [Compound 1398], the pest or weed control at 15.625 g/ha is 80% in assay [1]; 80% in assay [3]; 0% in assay [4]; 0% in assay [5]; 0% in assay [6]; 0% in assay [8]. The pest or weed control at 15.625 g/ha in assay [9] is 20%. Moreover, the pest or weed control at 62.5 g/ha in assay [1] is 80%; in [3], 80%; in assay [4] it was 40%; in [5], 40%; in [6], 50%; in assay [8], 60%. For the same compound, in [9], the pest or weed control at 62.5 g/ha is 60%. Besides, the pest or weed control at 250 g/ha in assay [1] worked out at 80%; in [3], 80%; in [4] it was 40%; in assay [5], 60%; in [6], 60%; in assay [8] it was 80%. Moreover, in [9], the pest or weed control at 250 g/ha is 80%. The plant injury at 15.625 g/ha with corn (Zea mays) [2] was found to be 30%; in the assay on corn (Zea mays) [7], 20%. Further, the plant injury at 62.5 g/ha worked out at 70% with corn (Zea mays) [2] and 80% with corn (Zea mays) [7]. In addition, the plant injury at 250 g/ha in the assay with corn (Zea mays) [2] came out at 80%; in the assay with corn (Zea mays) [7] it was 90%.
Consider `CN1CC(c2cccc(C(F)(F)F)c2)C(C(=O)Nc2ccccc2S(C)(=O)=O)C1=O` (stereo not drawn) [Compound 637], for which the “Plant response rating: Pigweed, Palmer” value in assay [10] (31 g ai/ha) is on record as 0; in assay [10] (62 g ai/ha), 0; in assay [10] (125 g ai/ha), 0; in assay [10] (250 g ai/ha), 65.
As for `CN1CC(c2ccc(C(F)(F)F)cc2)C(C(=O)Nc2ccccc2S(C)(=O)=O)C1=O` (stereo not drawn) [Compound 624], the “Plant response rating: Pigweed, Palmer” value in [10] (31 g ai/ha) was 0; in assay [10] (62 g ai/ha) it was 25; in [10] (125 g ai/ha) it was 20; in assay [10] (250 g ai/ha), 30.
Turning to `Cc1ccc([C@H]2CN(C)C(=O)[C@@H]2C(=O)Nc2ccc(F)nc2F)cc1` [Compound 1402], the pest or weed control at 15.625 g/ha in assay [1] was determined as 80%; in assay [3], 80%; in assay [4], 0%; in assay [5], 10%; in assay [6], 10%; in assay [8], 40%. Further, the pest or weed control at 15.625 g/ha in [9] was 0%. The pest or weed control at 62.5 g/ha in assay [1] turned out to be 80%; in assay [3], 80%; in [4], 30%; in [5] it was 40%; in assay [6] it was 60%; in assay [8] it was 70%. In assay [9], the pest or weed control at 62.5 g/ha came to 80%. Besides, the pest or weed control at 250 g/ha in assay [1] was determined as 80%; in [3], 80%; in assay [4] it was 50%; in [5], 60%; in assay [6], 60%; in assay [8] it was 80%. In addition, in [9], the pest or weed control at 250 g/ha turned out to be 80%. Further, the plant injury at 15.625 g/ha in the assay with corn (Zea mays) [2] was 70%; with corn (Zea mays) [7], 60%. Further, the plant injury at 62.5 g/ha in the assay on corn (Zea mays) [2] and with corn (Zea mays) [7] was 80% in each case. Further, the plant injury at 250 g/ha in the assay with corn (Zea mays) [2] was determined as 80%; in the assay on corn (Zea mays) [7], 90%.
Take `CN1CC(c2cccc(C(F)(F)F)c2)C(C(=O)Nc2cccc(F)c2F)C1=O` (stereo not drawn) [Compound 636]: the “Plant response rating: Pigweed, Palmer” value in [10] (31 g ai/ha) is reported as 0; in assay [10] (62 g ai/ha) it was 10; in [10] (125 g ai/ha), 80; in assay [10] (250 g ai/ha), 90.
